From patent publication US7214495B2, “Screening method” (Takeda Pharmaceutical Company Limited, priority 2002, dated 2007)

What was measured:
human-derived GPR40 = molecular target: T1, human-derived GPR40 (Homo sapiens, UniProt O14842); experiment: Intracellular calcium change (FLIPR) in CHO-hGPR40 No. 104, eicosanoids; assay type: cell-based; conditions: added in 10^−5 M to 10^−6 M; no response in vector-only control
T1 construct: The DNA fragment encoding human GPR40 was acquired by the following PCR procedures; expressed in transfected cells; host or cells: CHO-K1 (transient, Lipofectamine)
T1 sequence (O14842 whole entry, the tested form may be a part): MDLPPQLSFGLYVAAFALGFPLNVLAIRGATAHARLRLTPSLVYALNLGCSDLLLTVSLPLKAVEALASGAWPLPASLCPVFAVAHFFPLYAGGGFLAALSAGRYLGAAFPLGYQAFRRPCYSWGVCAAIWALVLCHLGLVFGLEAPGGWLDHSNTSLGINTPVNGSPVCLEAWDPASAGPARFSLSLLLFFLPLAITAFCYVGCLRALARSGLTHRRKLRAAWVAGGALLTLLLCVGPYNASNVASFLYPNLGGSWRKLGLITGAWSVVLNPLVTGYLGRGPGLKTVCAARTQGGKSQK
Experimental: The CHO cell line (CHO-hGPR40 No. 104) wherein human GPR40 prepared by publicly known methods using the human GPR40 expression vector prepared in REFERENCE EXAMPLE 1 was expressed was cultured in MEMα medium (Invitrogen) containing 10% fetal calf serum (Invitrogen), unless otherwise indicated. The cells cultured were rinsed with PBS (Invitrogen), scraped in trypsin/EDTA solution (Invitrogen) and recovered by centrifugal operation. The number of the cells obtained was counted and diluted so as to contain 3×10^4 cells/100 μl. The dilution was dispensed in a Black walled 96-well plate (Costar) in 100 μl/well, followed by incubation overnight in a CO2 incubator. The changes in intracellular calcium level in this case were measured using FLIPR (Molecular Device). In order to determine the changes in the intracellular calcium ion level on FLIPR, the cells were pre-treated by the following procedures. First, for the purpose of adding a fluorescent dye Fluo-3 AM (DOJIN) to the cells or washing the cells immediately before the FLIPR assay, an assay buffer was prepared. A solution obtained by adding 20 ml of 1M HEPES (pH 7.4) (DOJIN) to 1000 ml of HBSS (Invitrogen) was prepared (hereinafter HBSS/HEPES solution), to which 10 ml of a solution mixture obtained by dissolving 710 mg of Probenecid (Sigma) in 5 ml of 1N NaOH and further adding 5 ml of HBSS/HEPES solution was added. The resulting solution was used as the assay buffer. Next, 50 μg of Fluo-3AM was dissolved in 21 μl of DMSO (DOJIN) and an equal volume of 20% Pulronic acid (Molecular Probes) was added to and mixed with the solution. The mixture was then added to 10.6 ml of the assay buffer supplemented with 105 μl of fetal calf serum to prepare a fluorescent dye solution. The medium for the CHO cell line cultured was removed. Immediately thereafter, the fluorescent dye solution was dispensed in 100 μl each/well and the cells were incubated in a CO2 incubator for an hour so that the fluorescent dye was taken up into the cells. The cells after the incubation was washed with the assay buffer described above and set on FLIPR. A test sample added to the CHO cell line was prepared using the assay buffer and set on FLIPR at the same time. After the pre-treatment above was made, the changes in intracellular calcium level after the addition of various test samples were measured on FLIPR. […] It was thus noted that GPR40 was responsive to these compounds as well.

human GPR40 = molecular target: T2, human GPR40 (Homo sapiens, UniProt O14842); experiment: EC50 by FLIPR calcium assay in CHO cells stably expressing human GPR40; assay type: cell-based; conditions: intracellular calcium, FLIPR, stable CHO line; for EC50: read-out: EC50 Human GPR40
T2 construct: The resulting fragment (ca. 1 kb) was introduced into vector pAKKO-111, which was used for transfection of CHO cells; expressed in transfected cells
T2 sequence (O14842 whole entry, the tested form may be a part): as above
Experimental: (§1) For determination of EC50 values, the CHO cell lines in which human-, mouse- and rat-derived GPR40 was stably expressed were used. Unless otherwise indicated, these CHO cell lines were incubated in α-MEM medium (Invitrogen) supplemented with 10% fetal calf serum (Invitrogen).
(§2) On the day before assay, the cells incubated to almost confluent stage were rinsed with PBS (Invitrogen), then scraped in 0.05% trypsin-EDTA solution (Invitrogen) and recovered by centrifugal operation. The number of the cells obtained was counted and diluted so as to contain 3×10^5 cells/1 mL of the medium. The dilution was dispensed in a Black welled 96-well plate (Coster) in 100 μL/well, followed by incubation overnight in a CO2 incubator. To the thus prepared CHO cells, various test samples were added and the changes in intracellular calcium level in this case were measured using FLIPR (Molecular Device). In order to determine the changes in the intracellular calcium ion level on FLIPR, the cells were pre-treated by the following procedures.
(§3) First, for the purpose of adding a fluorescent dye Fluo-3 AM (DOJIN) to the cells or washing the cells immediately before the FLIPR assay, an assay buffer was prepared. A solution obtained by adding 20 mL of 1M HEPES (pH 7.4) (DOJIN) to 1000 mL of HBSS (Invitrogen) was prepared (hereinafter HBSS/HEPES solution), to which 10 mL of a solution mixture obtained by dissolving 710 mg of Probenecid (Sigma) in 5 mL of 1N NaOH and further adding 5 mL of HBSS/HEPES solution was added. The resulting solution was used as the assay buffer. Next, 50 μg of Fluo-3AM was dissolved in 21 μL of DMSO (Wako) and an equal volume of 20% Pulronic acid (Molecular Probes) was added to and mixed with the solution. The mixture was then added to 10.6 mL of the assay buffer supplemented with 105 μL of fetal calf serum to prepare a fluorescent dye solution. […], the medium for the CHO cells again plated in a Black welled 96-well plate was removed. Immediately thereafter, the fluorescent dye solution was dispensed in 100 μL each/well and the cells were incubated in a CO2 incubator for an hour so that the fluorescent dye was taken up into the cells. The cells after the incubation was washed with the assay buffer described above and set on FLIPR. […] After the pre-treatment above was made, the changes in intracellular calcium level after the addition of various test samples were measured on FLIPR.

[1] = tested on: mouse pancreatic β cell line MIN6; experiment: Insulin secretion from MIN6 in KRBH buffer (immunoassay); assay type: cell-based; conditions: 22 mM glucose KRBH, 90 minutes
Experimental: The mouse pancreatic β cell line MIN6 incubated in a flask was scraped in PBS containing 2.5 mM EDTA and plated in a 96-well plate followed by incubation for 2 days. The medium used was the same as in EXAMPLE 24, namely, 4.5 g/l of glucose-containing Dulbecco's Modified Eagle Medium (DMEM, Invitrogen, Inc.) supplemented with 15% fetal calf serum (ThermoTrace, Inc.), 5.5 μM 2-mercaptethanol (Invitrogen, Inc.), 20 mM HEPES pH 7.3, 100 U/ml penicillin and 100 μg/ml streptomycin. The cells were washed twice with modified Krebs-Ringer bicarbonate buffer (KRBH, 116 mM NaCl, 4.7 mM KCl, 1.2 mM KH2PO4, 1.2 mM MgSO4, 2.5 mM CaCl2, 25 mM NaHCO3, 24 mM HEPES, pH 7.3), followed by preincubation at 37° C. in 5% CO2 for 30 minutes. The fatty acid diluted/prepared using the aforesaid KRBH buffer added with 22 mM glucose was added to the cells after the preincubation, followed by incubation under the conditions of 37° C. in 5% CO2 for 90 minutes. After the incubation, the supernatant of the cells was recovered and stored in a frozen state. The insulin content in the supernatant was assayed using an insulin immunoassay kit commercially available (Amersham Pharmacia, Inc.).
Based on the method of EXAMPLE 25, effects of glucose level when added with fatty acids were examined. The level of glucose, which was added to KRBH upon the addition of fatty acids, was varied to 0, 5.5, 11 and 22 mM to study the effects.
The insulin secretion enhancing activity in the m40i103-introduced MIN6 cells using HVJ Envelope VECTOR KIT GenomONE based on the method of EXAMPLE 18 was examined. The insulin secretion enhancing activity by fatty acids was examined according to the method of EXAMPLE 25.
Based on the procedures of EXAMPLE 25, an essential prerequisite of Ca^2+ ions in the extracellular fluid was examined. In preincubation and incubation with a sample, Ca^2+ ions were removed and 0.1 mM EGTA, which was a reagent for chelating Ca^2+ ions, was further added, and then the insulin secretion enhancing activity by fatty acids was examined in this case.
Based on the method of EXAMPLE 25, effects of Ca^2+ channel blocker (Nifedipine) and MAP kinase inhibitor (PD98059) were examined. In preincubation and incubation with a sample, the insulin secretion enhancing activity by fatty acids was examined when Nifedipine (10 μM) or PD98059 (50 μM) was added.
It is known that fatty acids have the property of binding to albumin. Based on the method of EXAMPLE 25, effects were examined when bovine serum albumin (BSA) was present. In preincubation and incubation with a sample, the insulin secretion activity by fatty acids was examined when 0.1% BSA was added to the buffer.

Mouse GPR40 = molecular target: T3, Mouse GPR40 (Mus musculus, UniProt Q76JU9); experiment: EC50 by FLIPR calcium assay in CHO cells stably expressing mouse GPR40; assay type: cell-based; conditions: intracellular calcium, FLIPR, stable CHO line
T3 construct: expressed in transfected cells
T3 sequence (Q76JU9 whole entry): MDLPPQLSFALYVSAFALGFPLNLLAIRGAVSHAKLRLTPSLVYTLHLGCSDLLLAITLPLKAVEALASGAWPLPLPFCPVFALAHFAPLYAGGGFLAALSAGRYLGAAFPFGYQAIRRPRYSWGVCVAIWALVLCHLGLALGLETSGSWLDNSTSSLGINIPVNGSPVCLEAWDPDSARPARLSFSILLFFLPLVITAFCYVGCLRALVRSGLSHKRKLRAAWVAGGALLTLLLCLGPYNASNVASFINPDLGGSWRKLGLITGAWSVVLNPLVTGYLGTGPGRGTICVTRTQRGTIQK
Experimental: as §1, §2, §3

Rat GPR40 = molecular target: T4, Rat GPR40 (Rattus norvegicus, UniProt Q8K3T4); experiment: EC50 by FLIPR calcium assay in CHO cells stably expressing rat GPR40; assay type: cell-based; conditions: intracellular calcium, FLIPR, stable CHO line
T4 construct: expressed in transfected cells
T4 sequence (Q8K3T4 whole entry): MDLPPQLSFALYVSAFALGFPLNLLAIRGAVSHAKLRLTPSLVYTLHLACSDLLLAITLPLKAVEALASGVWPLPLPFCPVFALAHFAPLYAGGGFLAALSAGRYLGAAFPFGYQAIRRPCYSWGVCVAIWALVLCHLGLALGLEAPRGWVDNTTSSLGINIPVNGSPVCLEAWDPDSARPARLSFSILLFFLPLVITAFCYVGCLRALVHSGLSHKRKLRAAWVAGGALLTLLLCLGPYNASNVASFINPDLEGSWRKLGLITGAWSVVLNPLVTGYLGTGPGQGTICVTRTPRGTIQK
Experimental: as §1, §2, §3

MIN6 cells = experiment: FLIPR intracellular calcium assay using MIN6; assay type: cell-based, mouse; conditions: 10 μM fatty acid
Experimental: Mouse pancreatic β cell line MIN6 incubated in a flask was scraped using PBS containing 2.5 mM EDTA and diluted so as to contain 3×10^5 cells/1 mL of the medium. The dilution was dispensed in a Black welled 96-well plate (Coster) in 100 μL/well, followed by incubation in a CO2 incubator for 2 days. The medium used was 4.5 g/l of glucose-containing Dulbecco's Modified Eagle Medium (DMEM, Invitrogen, Inc.) supplemented with 15% fetal calf serum (ThermoTrace, Inc.), 5.5 μM 2-mercaptethanol (Invitrogen, Inc.), 20 mM HEPES pH 7.3, 100 U/ml penicillin and 100 μg/ml streptomycin. To the thus prepared MIN6 cells, various fatty acids (10 μM) were added and the changes in intracellular calcium level in this case were measured using FLIPR (Molecular Device). The changes in the intracellular calcium ion level on FLIPR were assayed in accordance with the procedures described in EXAMPLE 24.

CCCCCC=CCC=CCC=CCC1OC1CCCC(=O)O (mixture of isomers) [5,6-Epoxyeicosatrienoic acid, (±)5(6)-epoxy-8Z,11Z,14Z-eicosatrienoic acid]
response (increase in intracellular calcium level) of GPR40-expressing CHO cell line (human-derived GPR40): specifically responsive
EC50 (human GPR40): 7.7 ± 0.2 µM

CCCCCC=CCC=CCC1OC1CC=CCCCC(=O)O (mixture of isomers) [8,9-Epoxyeicosatrienoic acid, (±)8(9)-epoxy-5Z,11Z,14Z-eicosatrienoic acid]
response (increase in intracellular calcium level) of GPR40-expressing CHO cell line (human-derived GPR40): specifically responsive
EC50 (human GPR40): 6.1 ± 0.2 µM

CCCCCC=CCC1OC1CC=CCC=CCCCC(=O)O (mixture of isomers) [11,12-Epoxyeicosatrienoic acid, (±)11(12)-epoxy-5Z,8Z,14Z-eicosatrienoic acid]
response (increase in intracellular calcium level) of GPR40-expressing CHO cell line (human-derived GPR40): specifically responsive
EC50 (human GPR40): 1.4 ± 0.3 µM

CCCCCC(O)C(O)CC=CCC=CCC=CCCCC(=O)O (mixture of isomers) [14,15-Dihydroxyeicosatrienoic acid, (±)14,15-dihydroxy-5Z,8Z,11Z-eicosatrienoic acid]
response (increase in intracellular calcium level) of GPR40-expressing CHO cell line (human-derived GPR40): specifically responsive
EC50 (human GPR40): 1.1 ± 0.4 µM

CCCCCC1OC1C/C=C\C/C=C\C/C=C\CCCC(=O)O (racemic) [14,15-EET, (±)14(15)-epoxy-5Z,8Z,11Z-eicosatrienoic acid]
response (increase in intracellular calcium level) of GPR40-expressing CHO cell line (human-derived GPR40): specifically responsive

CCCC(=O)O [Butyric acid (C4), Butyric acid]
insulin secretion enhancing activity [1]: did not show any significant insulin secretion enhancing activity
EC50 Human GPR40 (human GPR40): inactive
EC50 Mouse GPR40 (Mouse GPR40): inactive
EC50 Rat GPR40 (Rat GPR40): inactive
intracellular Ca^2+ level in MIN6 (MIN6 cells): not observed

CCCCC/C=C\C/C=C\CCCCCCCC(=O)OC [Methyl linolate]
insulin secretion enhancing activity [1]: did not show any significant insulin secretion enhancing activity
EC50 Human GPR40 (human GPR40): inactive
EC50 Mouse GPR40 (Mouse GPR40): inactive
EC50 Rat GPR40 (Rat GPR40): inactive
intracellular Ca^2+ level in MIN6 (MIN6 cells): not observed
